Source: patent US20220023773A1, “COMPOSITIONS COMPRISING 2-[(1R,6R)-6-ISOPROPENYL-3-METHYLCYCLOHEX-2-EN-1-YL]-3-HYDROXY-5-PENTYLPHENOLATE” (Natural Extraction Systems, LLC, priority 2018, published 2022)

Key:
Format in all cases: physicochemical
[1] = pH stability of the phenolate in water (color change purple to yellow-brown)
Procedure: 1 gram of 1R,6R CBD was dissolved in 6.6 milliliters of 0.5 molar potassium hydroxide (0.5 M KOH) in ethanol to produce 2-[(1R,6R)-6-isopropenyl-3-methylcyclohex-2-en-1-yl]-3-hydroxy-5-pentylphenolate. The solution was then diluted with 100 millimolar sodium carbonate (100 mM Na2CO3) in water to a final volume of 50 milliliters and a 2-[(1R,6R)-6-isopropenyl-3-methylcyclohex-2-en-1-yl]-3-hydroxy-5- pentylphenolate concentration of approximately 20 grams per liter. 0.5 milliliters of the 2-[(1R,6R)-6-isopropenyl-3-methylcyclohex-2-en-1-yl]-3-hydroxy-5-pentylphenolate solution was added to each of 25 test tubes containing 9.5 milliliters of 0.1 molar carbonate/bicarbonate (CO3^2−/HCO3^−) buffer according to Table 1. Each test tube contained approximately 10 milligrams of 2-[(1R,6R)-6-isopropenyl-3-methylcyclohex-2-en-1-yl]-3-hydroxy-5-pentylphenolate at a concentration of approximately 1 gram per liter, approximately 0.66% ethanol by weight, trace potassium ion, and variable sodium ion, carbonate ion, and bicarbonate ion. pH's were confirmed by multiple different measurements. […]

[2] = Determining the approximate pKa of 1R,6R CBD by color at varying sodium bicarbonate concentration; conditions: distilled water with sodium bicarbonate, under the test conditions, from color change
Procedure: Example 2. Determining the approximate pKa of IR, 6R CBD 0.5 milliliters of the 20 gram-per-liter solution of 2-[(1R,6R)-6-isopropenyl-3-methylcyclohex-2-en-1-yl]-3-hydroxy-5-pentylphenolate described in Example 1 was diluted with 9.5 milliliters of distilled water comprising varying concentrations of sodium bicarbonate, and color was monitored as shown in Table 2. pH's were confirmed by multiple different measurements.

[3] = Commercial viability of beverages comprising the phenolate (appearance in bottled water)
Procedure: 20 milliliters of water was removed from a 1 liter bottle of ESSENTIA® OVERACHIEVING H2O®. ESSENTIA® OVERACHIEVING H2O® contains purified water, sodium bicarbonate, dipotassium phosphate, magnesium sulfate, and calcium chloride, and its pH was determined to be about 9.5. The 20 milliliters of removed water was replaced with 20 milliliters of the 20 gram-per-liter solution of 2-[(1R,6R)-6-isopropenyl-3-methylcyclohex-2-en-1-yl]-3-hydroxy-5-pentylphenolate, which is described in Example 1, and the bottle was hermetically sealed using the screw cap top of the bottle to produce a hermetically-sealed container comprising approximately 400 milligrams of 2-[(1R,6R)-6-isopropenyl-3-methylcyclohex-2-en-1-yl]-3-hydroxy-5-pentylphenolate. The pH of the liquid was measured and determined to be about 10. […] 5 milliliters of water was removed from a 500 milliliter bottle of DASANI® purified water.
DANSANI® purified water contains purified water, magnesium sulfate, potassium chloride, and sodium chloride, and its pH was determined to be about 7.0. The 5 milliliters of removed water was replaced with 5 milliliters of the 20 gram-per-liter solution of 2-[(1R,6R)-6-isopropenyl-3-methylcyclohex-2-en-1-yl]-3-hydroxy-5-pentylphenolate, which is described in Example 1, and the bottle was hermetically sealed using the screw cap top of the bottle to produce a hermetically-sealed container comprising approximately 100 milligrams of 2-[(1R,6R)-6-isopropenyl-3-methylcyclohex-2-en-1-yl]-3-hydroxy-5-pentylphenolate. The pH of the liquid was measured and determined to be about 9.5.
0.5 milliliters of water was removed from a 500 milliliter bottle of DASANI® purified water. DANSANI® purified water contains purified water, magnesium sulfate, potassium chloride, and sodium chloride, and its pH was determined to be about 7.0. […] The pH of the liquid was measured and determined to be about 8.5.

SMILES	pKa ([1]; suggested from absence of color change, at least in dilute aqueous solutions (alternative: kinetic trapping))	pKa [2]	color change from purple (phenolate) to yellow-brown (1R,6R CBD) ([1]; pH's of 9.1 and above, approximately 1 gram per liter in 0.1 molar carbonate/bicarbonate buffer, approximately 0.66% ethanol)	appearance of the liquid ([3]; approximately 10 milligrams in 500 milliliter bottle of DASANI purified water, pH about 8.5)	appearance of the liquid ([3]; approximately 100 milligrams in 500 milliliter bottle of DASANI purified water, pH about 9.5)	appearance of the liquid ([3]; approximately 400 milligrams in 1 liter bottle of ESSENTIA OVERACHIEVING H2O, pH about 10)
C=C(C)[C@@H]1CCC(C)=C[C@H]1c1c(O)cc(CCCCC)cc1O [1R,6R CBD, 2-[(1R,6R)-6-isopropenyl-3-methylcyclohex-2-en-1-yl]-5-pentylbenzene-1,3-diol, reference compound]	< 9.1	8 to 8.5				
C=C(C)[C@@H]1CCC(C)=C[C@H]1c1c(O)cc(CCCCC)cc1O [2-[(1R,6R)-6-isopropenyl-3-methylcyclohex-2-en-1-yl]-3-hydroxy-5-pentylphenolate]			No color change	transparent and lacked discernable color	transparent and purple	purple and transparent
